# Laboratory results reported in patent US20180028594A1, “[…] OPIOID RECEPTOR AGONISTS FOR HARD TISSUE PAIN” (Cara Therapeutics, Inc., priority 2014, published 2018).
# Assays:
# [1] = tested on: Somatic and visceral pain; assay: Acetic Acid Writhing, somato-visceral inflammatory pain model; assay type: in vivo; details: Mouse
# Experimental: (§1) In standard preclinical pain models, CR845 successfully attenuated acute and chronic visceral, inflammatory and neuropathic pain in a dose-dependent manner (see Table 1, below). The analgesic effect of CR845 was recordable within 15 minutes post-administration and lasted for up to 18 hours following single-dose administration.
# [2] = tested on: mechanical hyperalgesia; assay: Complete Freund's Adjuvant, chronic inflammatory pain model; assay type: in vivo; details: Rat
# Experimental: as §1
# [3] = tested on: mechanical hyperalgesia; assay: Carrageenan, acute inflammatory pain model; assay type: in vivo; details: Rat
# Experimental: as §1
# [4] = tested on: tactile allodynia; assay: L5/6 Spinal Nerve Ligation (Chung Model) of neuropathic pain; assay type: in vivo, Rat
# Experimental: FIG. 1: Efficacy of CR845 in “Chung Model” of neuropathic pain is blocked with Peripheral (Intrapaw) administration of a kappa antagonist (norBNI) in rats. *** denotes p<0.001. compared to vehicle-treated controls (two-way ANOVA). Vehicle or Nor-BNI was administered intraplantarly (0.2 mg) 15 min prior to CR845. Injection (1 mg/kg). N=6 male rats/group, mean±SEM.
# The peripheral mechanism of action of CR845 is supported preclinically by both biochemical in vitro assays and in vivo functional pharmacological studies. […] Moreover, in standard preclinical pain models, such as the “Chung Model” of neuropathic pain, the analgesic action of CR845 was blocked with kappa opioid receptor antagonists administered directly to the local site of injury, indicating a peripheral site of action for CR845 (FIG. 1). In the “Chung Model”, neuropathic pain is induced experimentally by ligating spinal nerves mediating sensation for a hind limb. […] Sets of different thickness filaments are used to test sensitivity, each of which is designed to produce a given force (in grams) upon bending after contact. By testing with these filaments, the minimum force to evoke a withdrawal response defines the paw withdrawal threshold. The nerve injury produces a marked reduction in paw withdrawal thresholds (increased sensitivity to force) in response to probing with the filaments.
# [5] = tested on: acute and chronic visceral, inflammatory and neuropathic pain; assay: Standard preclinical pain models, onset and duration of analgesic effect; assay type: in vivo
# Experimental: as §1
# [6] = tested on: pro-inflammatory mediators; assay: Production and release of pro-inflammatory mediators
# [7] = Pharmacokinetic studies, drug in extracted brain tissue; assay type: in vivo; details: animals, analgesic and supra-analgesic doses
# [8] = Phase 1 clinical trials, safety and sedation (Ramsey Sedation Scale); assay type: in vivo, human
# Source text: The most common TEAEs across evaluated populations were transient facial tingling or numbness, dizziness, fatigue and a transient increase in urine output in the absence of electrolyte loss, or aquaresis. […] No other changes in vital signs, including supine pulse rate, blood pressure, respiratory rate, oral body temperature, or oxygen saturation were reported, nor were any clinically significant changes observed in electrocardiogram characteristics. Additionally, the CNS adverse events characteristic of prior-generation CNS-active kappa agonists, such as acute psychiatric side effects, were not observed with CR845. The potential to cause sedation was assessed using the Ramsey Sedation Scale in the ascending dose-tolerance Phase 1 trial (Study 2048-001) of I.V. CR845, which included 54 subjects (17 on placebo; 37 on CR845).
# [9] = tested on: postoperative pain (soft tissue surgery); details: human, in vivo
# [10] = tested on: postoperative pain (hard tissue surgery); details: human, in vivo
smiles,measurement,setting,value
"CC(C)C[C@@H](NC(=O)[C@@H](Cc1ccccc1)NC(=O)[C@H](N)Cc1ccccc1)C(=O)N[C@H](CCCCN)C(=O)N1CCC(N)(C(=O)O)CC1 [CR845, D-Phe-D-Phe-D-Leu-D-Lys-[ω(4-aminopiperidine-4-carboxylic acid)]—OH]",Duration of Action,[1],>18 h
same,"ED50 (I.V., mg/kg)",[1]; I.V.,0.07 mg/kg
same,Duration of Action,[2],>2 h
same,"ED50 (I.V., mg/kg)","[2]; I.V., mechanical hyperalgesia",0.08 mg/kg
same,Duration of Action,[3],>1 h
same,"ED50 (I.V., mg/kg)","[3]; I.V., mechanical hyperalgesia",0.3 mg/kg
same,"ED50 (I.V., mg/kg)","[4]; Rat, I.V., L5/6 Spinal Nerve Ligation, tactile allodynia",0.3 mg/kg
same,Duration of Action,"[4]; Rat, L5/6 Spinal Nerve Ligation",>8 h
same,Paw withdrawal threshold,"[4]; rats, I.V. CR845 1 mg/kg, Chung Model",increase in the withdrawal threshold
same,Time at which analgesic effect was recordable post-administration,[5],≤ 15 min
same,Duration of analgesic effect following single-dose administration,[5]; single dose,up to 18 hours
same,Production and release of pro-inflammatory mediators,[6],decreased the production and release of pro-inflammatory mediators
same,Concentration of drug in extracted brain tissue,[7],no measurable concentrations
same,"Sedation, Ramsey Sedation Scale","[8]; ascending dose-tolerance Phase 1 trial (Study 2048-001), I.V., healthy subjects",did not cause sedation
same,Tolerability,[8]; four Phase 1 clinical trials,generally well tolerated
same,Greater reduction in pain intensity (PID) at 24 hours compared to Placebo/Placebo,[9],approximately 60%
same,Improvement in mean SPID values 0-4 hour compared to Placebo/Placebo,[9],3.5 fold
same,"Incidence of nausea, patients",[9],26.1%
same,"Incidence of vomiting, patients",[9],1.7%
same,"Mean TOTPAR0-2, pain relief within first 2 hours compared to Placebo/Placebo",[9],statistically superior pain relief
same,Percentage of patients characterized as Responders (global evaluation of study medication) compared to placebo,[9],higher percentage
same,Pruritus reported compared to placebo,[9],less pruritus
same,Reduction of incidence of nausea versus placebo,[9],approximately 50%
same,Reduction of incidence of vomiting versus placebo,[9],~80%
same,"SPID over 0-8, 0-12 and 0-16 time periods compared to Placebo/Placebo",[9],reduced pain intensity
same,"Blood sodium increase (hypernatremia), of total patients","[9]; iv, 0.04 mg/kg",14%
same,Acute psychiatric side effects,[10],no evidence of acute psychiatric side effects
same,Mean PID from baseline relative to placebo across 48 hour trial period,[10],numerically superior
same,Most frequent TEAEs (greater than 10%),[10],transient facial tingling and somnolence
same,Reduction of incidence of nausea compared to placebo,[10],60%
same,Reduction of incidence of vomiting compared to placebo,[10],80%
same,"SPID scores 0-24, 0-36, 0-48 compared to placebo",[10],Numerical improvements
same,Rise of mean plasma sodium concentration from baseline,"[10]; iv, 0.005 mg/kg",approximately 3%
same,SPID0-24 compared to placebo,"[10]; iv, 0.005 mg/kg",statistically significant reduction in pain intensity
same,SPID0-36 compared to placebo,"[10]; iv, 0.005 mg/kg",statistically significant
same,SPID0-48 compared to placebo,"[10]; iv, 0.005 mg/kg",statistically significant
"Oc1ccc2c3c1O[C@H]1c4[nH]c5c(c4C[C@@]4(O)[C@@H](C2)N(CC2CC2)CC[C@]314)C[C@@]1(O)[C@H]2Cc3ccc(O)c4c3[C@@]1(CCN2CC1CC1)[C@H]5O4 [nor-BNI, nor-binaltorphamine, reference compound]",Effect of kappa antagonist on efficacy of CR845,"[4]; rats, 0.2 mg intraplantar into injured paw 15 min prior to CR845 1 mg/kg",significantly reduces the effect of CR845
